Experimental data: ChEMBL document CHEMBL4406848, “Novel water soluble BODIPY compounds: Synthesis, photochemical, DNA interaction, topoisomerases inhibition and photodynamic activity properties” (Eur J Med Chem, 2019)

How the values were obtained:
[1] = system: HCT-116; experiment: Induction of apoptosis in human HCT116 cells assessed as necrotic cells at 5 uM incubated for 24 hrs in presence of irradiation by annexin V FITC and propidium iodide based flow cytometry (reference value: 0.2 %); type: functional
[2] = system: HCT-116; experiment: Induction of apoptosis in human HCT116 cells assessed as early apoptotic cells at 5 uM incubated for 24 hrs in presence of irradiation by annexin V FITC and propidium iodide based flow cytometry (reference value: 3.4 %); type: functional

**Q.** CC1=CC(/C=C/c2ccc(OCCCc3ccc[n+](C)c3)cc2)=[N+]2C1=C(c1ccc(OCCCc3ccc[n+](C)c3)cc1)c1c(C)cc(/C=C/c3ccc(OCCCc4ccc[n+](C)c4)cc3)n1[B-]2(F)F.[I-].[I-].[I-] was tested. Which Activity [1] did it give?
**A.** 10.7%

**Q.** What about the Activity [2] of the same molecule?
**A.** 35.8%
